Results on 16 compounds are retold here after DBAASP.

Usually MIC stands for the least concentration at which growth counts as inhibited. Lower therefore signals a more susceptible organism.

Common to all, as to assay: ≥ marks a high value that may be exact or a test limit, other limits are often not marked, values filed in µg/mL are converted to µM
The subject of assay [1] is Streptococcus mutans.
Assay [2] concerns Pseudomonas aeruginosa ATCC 27853.
The subject of assay [3] is Salmonella enterica subsp. enterica serovar Typhimurium ATCC 14028.
In assay [4] the test system is Klebsiella pneumoniae ATCC 10031.
Assay [5] has as its system Staphylococcus aureus ATCC 6538P.
Assay [6] has as its system Escherichia coli ATCC 25922.
Assay [7] relates to Bacillus subtilis ATCC 6633.
Assay [8] relates to Micrococcus luteus ATCC 10240.
In assay [9] the test system is Shigella dysenteriae ATCC 9752.
Assay [10] concerns Staphylococcus epidermidis ATCC 12228.
The subject of assay [11] is Pseudomonas aeruginosa Ps4.
Assay [12] deals with Candida albicans ATCC 90028.
Assay [13] deals with Staphylococcus aureus ATCC 6538.
For assay [14], the system named is Escherichia coli ATCC 8739.
Assay [15] relates to Staphylococcus aureus ATCC 43300.
Assay [16] relates to Staphylococcus aureus ATCC 25923.

≈ marks a conversion by molar mass, not a printed value. A value given as a limit tells only on which side of the number the result lay.

As for `CC(C)C[C@H](NC(=O)[C@H](C)NC(=O)[C@H](Cc1cnc[nH]1)NC(=O)[C@H](CC(C)C)NC(=O)[C@H](CC(C)C)NC(=O)[C@H](Cc1cnc[nH]1)NC(=O)[C@@H](NC(=O)[C@H](C)N)[C@@H](C)O)C(=O)N[C@@H](CCC(N)=O)C(=O)N[C@@H](CCCN=C(N)N)C(=O)N[C@@H](Cc1ccccc1)C(N)=O` [ATHLLHALQRF], the MIC in [1] is not below 191 µM.

`CC(C)C[C@H](NC(=O)[C@H](Cc1c[nH]c2ccccc12)NC(=O)[C@H](CCCCN)NC(=O)[C@H](Cc1ccccc1)NC(=O)[C@H](CC(C)C)NC(=O)[C@H](Cc1c[nH]c2ccccc12)NC(=O)[C@H](CCCCN)NC(=O)[C@H](CC(C)C)NC(=O)[C@@H](N)Cc1ccccc1)C(=O)N[C@@H](CCCCN)C(=O)N[C@@H](CCCCN)C(N)=O` [FLKWLFKWLKK]: the MIC in assay [2] is 16.3 µM (≈ 25 µg/mL); in [3] it was 130 µM (≈ 200 µg/mL); in assay [4], not below 32.5 µM; in assay [5] it was 8.13 µM (≈ 12.5 µg/mL); in assay [6] it was 32.5 µM (≈ 50 µg/mL); in assay [7], 4.1 µM (≈ 6.3 µg/mL). The results for the MIC in assay [8], in assay [9] and in assay [10] were 2.02 µM (≈ 3.1 µg/mL), 16.3 µM (≈ 25 µg/mL) and 8.13 µM (≈ 12.5 µg/mL), respectively.

In [11], `CC[C@H](C)[C@H](NC(=O)[C@H](CCCN=C(N)N)NC(=O)[C@@H](NC(=O)[C@H](CC(N)=O)NC(=O)[C@H](CCCN=C(N)N)NC(=O)[C@H](CCC(N)=O)NC(=O)[C@H](Cc1c[nH]c2ccccc12)NC(=O)[C@H](CCC(N)=O)NC(=O)[C@@H](N)Cc1ccccc1)[C@@H](C)CC)C(=O)N[C@@H](CCCN=C(N)N)C(=O)N[C@@H](CCCN=C(N)N)C(N)=O` [FQWQRNIRIRR] registered an MIC not below 159 µM.

In [11], `CC[C@H](C)[C@H](NC(=O)[C@H](CC(N)=O)NC(=O)[C@H](CCCN=C(N)N)NC(=O)[C@H](CCC(N)=O)NC(=O)[C@H](Cc1c[nH]c2ccccc12)NC(=O)[C@@H](N)Cc1ccccc1)C(=O)N[C@@H](CCCN=C(N)N)C(=O)N[C@@H](CCCCN)C(=O)N[C@H](C(=O)N[C@@H](CCCN=C(N)N)C(=O)N[C@@H](CCCN=C(N)N)C(=O)N[C@@H](CCCN=C(N)N)C(N)=O)C(C)C` [FWQRNIRKVRRR] showed an MIC not below 146 µM.

As for `CC[C@H](C)[C@H](NC(=O)[C@H](CC(N)=O)NC(=O)[C@H](CCCN=C(N)N)NC(=O)[C@H](CCC(N)=O)NC(=O)[C@H](Cc1c[nH]c2ccccc12)NC(=O)[C@@H](N)Cc1ccccc1)C(=O)N[C@@H](CCCN=C(N)N)C(=O)N[C@@H](CCCCN)C(=O)N[C@H](C(=O)N[C@@H](CCCN=C(N)N)C(=O)N[C@@H](CCCN=C(N)N)C(N)=O)C(C)C` [FWQRNIRKVRR], the MIC in assay [11] was not below 160 µM.

Take `CC[C@H](C)[C@H](NC(=O)[C@H](CC(N)=O)NC(=O)[C@H](CCCN=C(N)N)NC(=O)[C@H](CCC(N)=O)NC(=O)[C@H](Cc1c[nH]c2ccccc12)NC(=O)[C@@H](N)Cc1ccccc1)C(=O)N[C@@H](Cc1ccc(O)cc1)C(=O)N[C@@H](CCCCN)C(=O)N[C@H](C(=O)N[C@@H](CCCN=C(N)N)C(N)=O)C(C)C` [FWQRNIYKVR]: in assay [11], the MIC is not below 177 µM.

Take `CC(C)[C@H](NC(=O)[C@H](CCCCN)NC(=O)[C@H](CCCN=C(N)N)NC(=O)[C@H](Cc1c[nH]c2ccccc12)NC(=O)[C@H](CC(N)=O)NC(=O)[C@H](CCCN=C(N)N)NC(=O)[C@H](CCC(N)=O)NC(=O)[C@H](Cc1c[nH]c2ccccc12)NC(=O)[C@@H](N)Cc1ccccc1)C(=O)N[C@@H](CCCN=C(N)N)C(N)=O` [FWQRNWRKVR]: the MIC in assay [11] was not below 169 µM.

In the case of `CC[C@H](C)[C@H](NC(=O)[C@H](CCCCN)NC(=O)[C@@H](NC(=O)[C@H](CO)NC(=O)[C@H](CC(=O)O)NC(=O)[C@H](Cc1c[nH]c2ccccc12)NC(=O)[C@H](CC(C)C)NC(=O)CN)[C@@H](C)CC)C(=O)N[C@@H](C)C(=O)NCC(=O)N[C@@H](CCCCN)C(=O)N[C@@H](CCCCN)C(=O)N[C@@H](CC(C)C)C(=O)N[C@@H](Cc1ccccc1)C(=O)N[C@H](C(=O)N[C@@H](CC(N)=O)C(=O)N[C@H](C(=O)N[C@@H](CC(C)C)C(=O)N[C@@H](CC(=O)O)C(=O)N[C@@H](CCCCN)C(=O)N[C@H](C(=O)N[C@@H](CCCN=C(N)N)C(=O)N[C@H]1CSSC[C@@H](C(=O)O)NC(=O)CNC(=O)CNC(=O)[C@H](C)NC(=O)[C@H](C(C)C)NC(=O)[C@H](CCCCN)NC1=O)[C@@H](C)CC)C(C)C)C(C)C` [GLWDSIKIAGKKLFVNVLDKIRCKVAGGC], the MIC in assay [12] was not below 100 µM; in assay [13], 3.1 µM (≈ 9.71 µg/mL); in [14] it was 12.5 µM (≈ 39.1 µg/mL); in assay [15] it was 12.5 µM (≈ 39.1 µg/mL).

In assay [1], `CC[C@H](C)[C@H](NC(=O)[C@H](CC(N)=O)NC(=O)[C@H](CCCCN)NC(=O)[C@H](CC(C)C)NC(=O)[C@H](CCC(N)=O)NC(=O)[C@H](CCC(N)=O)NC(=O)[C@@H](NC(=O)[C@H](CC(C)C)NC(=O)[C@@H](N)CCCCN)C(C)C)C(=O)N[C@@H](Cc1ccccc1)C(=O)N[C@@H](CCCN=C(N)N)C(=O)O` [KLVQQLKNIFR] came in with an MIC not below 90.1 µM.

As to `CC(C)C[C@H](NC(=O)[C@H](CC(C)C)NC(=O)[C@H](CCCCN)NC(=O)[C@H](CC(C)C)NC(=O)[C@H](CC(C)C)NC(=O)[C@H](CCCCN)NC(=O)[C@H](CCCCN)NC(=O)[C@H](CC(C)C)NC(=O)[C@H](CC(C)C)NC(=O)[C@H](CCCCN)NC(=O)[C@@H](N)CC(C)C)C(=O)N[C@@H](CCCCN)C(=O)N[C@@H](CCCCN)C(=O)N[C@@H](Cc1ccccc1)C(N)=O` [LKLLKKLLKLLKKF], the MIC in assay [1] came out at 4.63 µM (≈ 8 µg/mL).

For the compound `CSCC[C@H](N)C(=O)N[C@@H](C)C(=O)N[C@@H](CCCN=C(N)N)C(=O)N[C@@H](CC(N)=O)C(=O)N[C@@H](CCCCN)C(=O)N1CCC[C@H]1C(=O)N[C@@H](CC(C)C)C(=O)NCC(=O)N[C@@H](CCCCN)C(=O)N[C@@H](CCCCN)C(=O)N[C@@H](CC(C)C)C(=O)N[C@@H](CCCN=C(N)N)C(=O)N[C@@H](CC(C)C)C(=O)N[C@@H](C)C(=O)N[C@@H](C)C(=O)N[C@@H](C)C(=O)N[C@@H](Cc1ccccc1)C(=O)N[C@@H](CCCCN)C(=O)O` [MARNKPLGKKLRLAAAFK], the MIC is more than 127 µM in assay [16] and not below 127 µM in assay [14].

As for `CSCC[C@H](N)C(=O)N[C@@H](CCCCN)C(=O)N[C@@H](CCCCN)C(=O)N[C@@H](CC(C)C)C(=O)N[C@@H](Cc1ccccc1)C(=O)N[C@@H](C)C(=O)N[C@@H](C)C(=O)N[C@@H](CC(C)C)C(=O)N[C@@H](C)C(=O)N[C@@H](CC(C)C)C(=O)N[C@@H](C)C(=O)N[C@@H](C)C(=O)N[C@H](C(=O)N[C@H](C(=O)N[C@@H](C)C(=O)N1CCC[C@H]1C(=O)N[C@H](C(=O)N[C@@H](Cc1c[nH]c2ccccc12)C(=O)O)C(C)C)C(C)C)C(C)C` [MKKLFAALALAAVVAPVW], the MIC in assay [16] is more than 135 µM; in [14] it was not below 135 µM.

For `CC(C)C[C@H](NC(=O)[C@H](CCCCN)NC(=O)[C@H](CCCCN)NC(=O)[C@H](CCCN=C(N)N)NC(=O)[C@H](CCCN=C(N)N)NC(=O)[C@H](CO)NC(=O)[C@H](CCC(N)=O)NC(=O)[C@H](Cc1ccc(O)cc1)NC(=O)[C@H](Cc1ccccc1)NC(=O)[C@H](CCC(N)=O)NC(=O)[C@H](CO)NC(=O)[C@H](CCC(=O)O)NC(=O)[C@H](CCCN=C(N)N)NC(=O)[C@@H](N)CC(N)=O)C(=O)N[C@@H](CO)C(=O)N[C@@H](CO)C(=O)N[C@@H](CCC(N)=O)C(=O)N[C@H](C(=O)O)C(C)C` [NRESQFYQSRRKKLSSQV], the MIC was more than 114 µM in assay [16] and not below 114 µM in assay [14].

As for `NC(N)=NCCC[C@H](NC(=O)[C@H](Cc1c[nH]c2ccccc12)NC(=O)[C@H](Cc1c[nH]c2ccccc12)NC(=O)[C@H](Cc1ccccc1)NC(=O)[C@H](CCCN=C(N)N)NC(=O)[C@H](CCCN=C(N)N)NC(=O)[C@@H](N)CCCN=C(N)N)C(=O)O` [RRRFWWR], the MIC in [1] is not below 53.8 µM.

For the compound `NC(N)=NCCC[C@H](NC(=O)[C@H](CCCN=C(N)N)NC(=O)[C@H](Cc1c[nH]c2ccccc12)NC(=O)[C@H](Cc1c[nH]c2ccccc12)NC(=O)[C@H](CCCN=C(N)N)NC(=O)[C@@H](N)CCCN=C(N)N)C(=O)N[C@@H](Cc1c[nH]c2ccccc12)C(=O)O` [RRWWRRW], the MIC in [1] amounted to 13.3 µM (≈ 16 µg/mL).

The compound `CC(C)C[C@H](NC(=O)[C@H](Cc1cnc[nH]1)NC(=O)[C@H](CCC(N)=O)NC(=O)[C@H](Cc1c[nH]c2ccccc12)NC(=O)[C@@H](NC(=O)[C@H](CCC(N)=O)NC(=O)[C@H](Cc1ccccc1)NC(=O)[C@H](CC(C)C)NC(=O)[C@@H](N)Cc1ccc(O)cc1)[C@@H](C)O)C(=O)N[C@@H](Cc1ccccc1)C(=O)N[C@@H](CCCN=C(N)N)C(=O)O` [YLFQTWQHLFR] came in with an MIC in assay [1] not below 81.2 µM.
